Marks after values point to notes of the source that are not given here.
Experiments:
PTZ-treated mice = test: Chemically induced seizures (pentylenetetrazole, PTZ); assay type: in vivo; conditions: for % Protection on PTZ induced convulsions: PTZ 90 mg/kg i.p. 30 min after compound, 20 mice
Protocol: Seizure-inducer pentylenetetrazole (PTZ) (90 mg/kg i.p.) was administered to mice 30 min after i.p. administration of the test compound.
Compound of Example 1 at the doses of 10 and 30 mg/kg i.p. was able to protect the animals from PTZ-induced convulsions. […]

mice = test: Maximal Electroshock Test (MES); assay type: in vivo; conditions: for MES % Protection from Tonic Extension: 20 mice; for Time of Straightening Reflex Loss: mean of 20 mice
Protocol: MES seizures were induced by electroconvulsometer (ECT Unit Ugo Basile, Italy). Mice received an electroshock (50 mA at 60 Hz for 0.2 s duration) through intra-corneal electrodes. This current intensity elicited complete tonic extension of the hindlimbs in control mice. The stimulus was applied 30 min or 60 min after intraperitoneal (i.p.) or oral (p.o.) administration of the test compound, respectively. To evaluate the drug effect on the seizure severity, time of Straightening Reflex Loss and the presence of tonic hindlimb extension were selected as the parameters.

[1] = 10 mg/kg i.p., stimulus 30 min after administration
[2] = 30 mg kg^-1 p.o., stimulus 60 min after administration

**Q.** Which “% Protection on PTZ induced convulsions” value (PTZ-treated mice; 3 mg/kg i.p.) does the source give for `C[C@H]1C(=O)NC(C)(C)N1Cc1ccc(OCc2cccc(F)c2)cc1` [Example 1, (S)-(-)-1-[4-(3-Fluoro-benzyloxy)-benzyl]-2,2,5-trimethyl-imidazolidin-4-one] here?
**A.** 0%

**Q.** What about the “% Protection on PTZ induced convulsions” value (PTZ-treated mice; 10 mg/kg i.p.) of the same compound?
**A.** 40%

**Q.** What about the “% Protection on PTZ induced convulsions” value (PTZ-treated mice; 30 mg/kg i.p.) of the same compound?
**A.** 90%

**Q.** What about the “protection from PTZ-induced convulsions (in words)” value (PTZ-treated mice; highest dose (30 mg/kg i.p.)) of the same compound?
**A.** almost complete

**Q.** And the “MES % Protection from Tonic Extension” value (mice; [1])?
**A.** 50* %

**Q.** And the “Time of Straightening Reflex Loss” value (mice; [1])?
**A.** 66.8 ± 9.3 s

**Q.** And the “MES % Protection from Tonic Extension” value (mice; [2])?
**A.** 30%

**Q.** And the “Time of Straightening Reflex Loss” value (mice; [2])?
**A.** 56.8 ± 6.3 s

**Q.** What about the “anticonvulsant activity in MES test (in words)” value (mice; either after i.p. (10 mg/kg) or oral (30 mg/kg) administration) of the same compound?
**A.** significant anticonvulsant activity
